# Patent US20040156869A1, “2-substituted quinazolin-4-ylamine analogues” (Neurogen Corporation, priority 2002, published 2004)
# pKi: −log10 of the molar value.
# Biological target: human capsaicin receptor (VR1) (Homo sapiens, UniProt Q8NER1)
# Test: Capsaicin receptor binding assay ([3H]RTX competition, VR1-transfected HEK293 membranes)
# human capsaicin receptor (VR1), sequence (Q8NER1 whole entry): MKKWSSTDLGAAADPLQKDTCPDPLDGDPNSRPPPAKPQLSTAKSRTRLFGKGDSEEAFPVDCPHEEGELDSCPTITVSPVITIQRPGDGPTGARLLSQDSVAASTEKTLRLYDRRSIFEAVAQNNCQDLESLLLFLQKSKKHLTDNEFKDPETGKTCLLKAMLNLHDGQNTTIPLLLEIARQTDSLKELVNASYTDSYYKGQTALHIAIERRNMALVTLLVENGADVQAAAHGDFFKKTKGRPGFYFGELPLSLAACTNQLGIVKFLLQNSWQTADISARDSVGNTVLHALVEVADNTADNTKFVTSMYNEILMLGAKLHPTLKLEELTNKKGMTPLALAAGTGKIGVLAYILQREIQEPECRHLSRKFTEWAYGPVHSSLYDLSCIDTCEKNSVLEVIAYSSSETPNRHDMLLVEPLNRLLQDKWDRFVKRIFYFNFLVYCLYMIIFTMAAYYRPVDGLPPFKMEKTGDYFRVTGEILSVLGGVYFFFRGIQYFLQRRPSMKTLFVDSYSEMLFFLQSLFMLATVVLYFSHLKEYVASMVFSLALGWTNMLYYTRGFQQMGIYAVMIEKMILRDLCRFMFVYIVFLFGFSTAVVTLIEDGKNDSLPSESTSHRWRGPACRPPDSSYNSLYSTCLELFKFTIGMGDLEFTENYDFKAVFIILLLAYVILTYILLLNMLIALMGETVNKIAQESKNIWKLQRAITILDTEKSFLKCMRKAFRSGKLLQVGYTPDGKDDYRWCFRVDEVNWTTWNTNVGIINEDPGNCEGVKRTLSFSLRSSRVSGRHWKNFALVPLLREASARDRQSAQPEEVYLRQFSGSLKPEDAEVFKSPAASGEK
row,Compound,pKi
1,"FC(F)(F)c1ccc(Nc2nc(CN3CCCC4CCCCC43)nc3cc(-c4ncccc4C(F)(F)F)ccc23)cn1 (centres unmarked) [Compound 365, [2-(Octahydro-quinolin-1-ylmethyl)-7-(3-trifluoromethyl-pyridin-2-yl)-quinazolin-4-yl]-(6-trifluoromethyl-pyridin-3-yl)-amine]",> 6.00
2,"CC(c1ccccc1)N(C)Cc1nc(Nc2ccc(C(F)(F)F)nc2)c2ccc(-c3ncccc3C(F)(F)F)cc2n1 (centres unmarked) [Compound 348, [2-{[Methyl-(1-phenyl-ethyl)-amino]-methyl}-7-(3-trifluoromethyl-pyridin-2-yl)-quinazolin-4-yl]-(6-trifluoromethyl-pyridin-3-yl)-amine]",> 6.00
3,"CCCN(CCC)CCc1nc(Nc2ccc(C(F)(F)F)cc2)c2ccc(-c3ncccc3C(F)(F)F)cc2n1 [Compound 416, [2-Dipropylaminoethyl-7-(3-trifluoromethyl-pyridin-2-yl)-quinazolin-4-yl]-(4-trifluoromethyl-phenyl)-amine]",> 6.00
4,"CC(=O)OCc1nc(Nc2ccc(C(F)(F)F)nc2)c2ccc(-c3ncccc3C(F)(F)F)cc2n1 [Compound 21, Acetic acid 7-(3-trifluoromethyl-pyridin-2-yl)-4-(6-trifluoromethyl-pyridin-3-ylamino)-quinazolin-2-ylmethyl ester]",> 6.00
5,FC(F)(F)c1ccc(Nc2nc(CCN3CCCCCC3)nc3cc(-c4ncccc4C(F)(F)F)ccc23)cc1 [Compound 402],> 6.00
6,"OC1CCN(Cc2nc(Nc3ccc(C(F)(F)F)nc3)c3ccc(-c4ncccc4C(F)(F)F)cc3n2)CC1 [Compound 484, 1-[7-(3-Trifluoromethyl-pyridin-2-yl)-4-(6-trifluoromethyl-pyridin-3-ylamino)-quinazolin-2-ylmethyl]-piperidin-4-ol]",> 6.00
7,"CN1CCC(COCc2nc(Nc3ccc(C(F)(F)F)cc3)c3ccc(-c4ncccc4C(F)(F)F)cc3n2)CC1 [Compound 247, [2-(1-Methyl-piperidin-4-ylmethoxymethyl)-7-(3-trifluoromethyl-pyridin-2-yl)-quinazolin-4-yl]-(4-trifluoromethyl-phenyl)-amine]",> 6.00
8,"CC(C)(C)c1ccc(Nc2nc(C(=O)O)nc3nc(-c4ncccc4C(F)(F)F)ccc23)cc1 [Compound 220, 4-(4-tert-Butyl-phenylamino)-7-(3-trifluoromethyl-pyridin-2-yl)-pyrido[2,3-d]pyrimidine-2-carboxylic acid]",> 6.00
9,"CC1CCN(CCc2nc(Nc3ccc(C(F)(F)F)cc3)c3ccc(-c4ncccc4C(F)(F)F)cc3n2)CC(C)(C)C1 (centres unmarked) [Compound 406, (4-Trifluoromethyl-phenyl)-{7-(3-trifluoromethyl-pyridin-2-yl)-2-[2-(3,3,5-trimethyl-azepan-1-yl)-ethyl]-quinazolin-4-yl}-amine]",> 6.00
10,"C[C@@H]1CN(Cc2nc(Nc3ccc(C(F)(F)F)nc3)c3ncc(-c4ncccc4Cl)cc3n2)C[C@H](C)O1 [Compound 616, [7-(3-Chloro-pyridin-2-yl)-2-(2,6-dimethyl-morpholin-4-ylmethyl)-pyrido[3,2-d]pyrimidin-4-yl]-(6-trifluoromethyl-pyridin-3-yl)-amine (cis)]",> 6.00
11,"CN(Cc1ccccc1)Cc1nc(Nc2ccc(C(F)(F)F)nc2)c2ccc(-c3ncccc3C(F)(F)F)cc2n1 [Compound 575, [2-[(Benzyl-methyl-amino)-methyl]-7-(3-trifluoromethyl-pyridin-2-yl)-quinazolin-4-yl]-(6-trifluoromethyl-pyridin-3-yl)-amine]",> 6.00
12,"C[C@H]1CN(Cc2nc(Nc3ccc(Cl)cc3)c3ccc(-c4ncccc4Cl)cc3n2)C[C@H](C)O1 [Compound 644, (S,S)-(4-Chloro-phenyl)-[7-(3-chloro-pyridin-2-yl)-2-(2,6-dimethyl-morpholin-4-ylmethyl)-quinazolin-4-yl]-amine]",> 6.00
13,"OCCN1CCN(Cc2nc(Nc3ccc(C(F)(F)F)cc3)c3ccc(-c4ncccc4C(F)(F)F)cc3n2)CC1 [Compound 504, 2-{4-[4-(4-Trifluoromethyl-phenylamino)-7-(3-trifluoromethyl-pyridin-2-yl)-quinazolin-2-ylmethyl]-piperazin-1-yl}-ethanol]",> 6.00
14,"COCc1nc(Nc2ccc(OC(F)(F)F)cc2)c2ccc(-c3ncccc3C(F)(F)F)nc2n1 [Compound 188, [2-Methoxymethyl-7-(3-trifluoromethyl-pyridin-2-yl)-pyrido[2,3-d]pyrimidin-4-yl]-(4-trifluoromethoxy-phenyl)-amine]",> 6.00
15,"CC(C)OCc1nc(Nc2ccc(S(N)(=O)=O)cc2)c2ccc(-c3ncccc3Cl)nc2n1 [Compound 279, 4-{7-(3-Chloro-pyridin-2-yl)-2-isopropoxymethyl-pyrido[2,3-d]pyrimidin-4-ylamino]-benzenesulfonamide]",> 6.00
16,"CN(C)CCCNC(=O)c1nc(Nc2ccc(C(F)(F)F)cc2)c2ccc(-c3ncccc3C(F)(F)F)nc2n1 [Compound 436, 4-(4-Trifluoromethyl-phenylamino)-7-(3-trifluoromethyl-pyridin-2-yl)-pyrido[2,3-d]pyrimidine-2-carboxylic acid (3-dimethylamino-propyl)-amide]",> 6.00

row,Compound,pKi
1,"FC(F)(F)c1ccc(Nc2nc(COCc3ccccc3)nc3cc(-c4ncccc4C(F)(F)F)ccc23)cn1 [Compound 25, [2-Benzyloxymethyl-7-(3-trifluoromethyl-pyridin-2-yl)-quinazolin-4-yl]-(6-trifluoromethyl-pyridin-3-yl)-amine]",> 6.00
2,"COCc1nc(Nc2ccc(C(C)(C)C)nc2)c2ccc(-c3ncccc3C(F)(F)F)nc2n1 [Compound 191, (6-tert-Butyl-pyridin-3-yl)-[2-methoxymethyl-7-(3-trifluoromethyl-pyridin-2-yl)-pyrido[2,3-d]pyrimidin-4-yl]-amine]",> 6.00
3,"CC(C)(C)c1ccc(Nc2nc(COCCCN3CCOCC3)nc3cc(-c4ncccc4C(F)(F)F)ccc23)cc1 [Compound 124, (4-tert-Butyl-phenyl)-[2-(3-morpholin-4-yl-propoxymethyl)-7-(3-trifluoromethyl-pyridin-2-yl)-quinazolin-4-yl]-amine]",> 6.00
4,"OCCNCc1nc(Nc2ccc(C(F)(F)F)cc2)c2ccc(-c3ncccc3C(F)(F)F)cc2n1 [Compound 534, 2-{[4-(4-Trifluoromethyl-phenylamino)-7-(3-trifluoromethyl-pyridin-2-yl)-quinazolin-2-ylmethyl]-amino}-ethanol]",> 6.00
5,"OCC1CCCN(Cc2nc(Nc3ccc(C(F)(F)F)nc3)c3ccc(-c4ncccc4C(F)(F)F)cc3n2)C1 (centres unmarked) [Compound 490, {1-[7-(3-Trifluoromethyl-pyridin-2-yl)-4-(6-trifluoromethyl-pyridin-3-ylamino)-quinazolin-2-ylmethyl]-piperidin-3-yl}-methanol]",> 6.00
6,"Cc1cccnc1-c1ccc2c(Nc3ccc(C(F)(F)F)cc3)nc(C3CCOC3)nc2n1 (centres unmarked) [Compound 174, [7-(3-Methyl-pyridin-2-yl)-2-(tetrahydro-furan-3-yl)-pyrido[2,3-d]pyrimidin-4-yl]-(4-trifluoromethyl-phenyl)-amine]",> 6.00
7,"CCc1ccc(Nc2nc(CN3CC(C)O[C@H](C)C3)nc3cc(-c4ncccc4C(F)(F)F)ccc23)cc1 (stereo in doubt) [Compound 653, (R,R)-[2-(2,6-Dimethyl-morpholin-4-ylmethyl)-7-(3-trifluoromethyl-pyridin-2-yl)-quinazolin-4-yl]-(4-ethyl-phenyl)-amine]",> 6.00
8,"COCc1nc(Nc2ccc(C(F)F)cc2)c2ccc(-c3ncccc3C(F)(F)F)nc2n1 [Compound 240, (4-Difluoromethyl-phenyl)-[2-methoxymethyl-7-(3-trifluoromethyl-pyridin-2-yl)-pyrido[2,3-d]pyrimidin-4-yl]-amine]",> 6.00
9,"CC1(C)CN(Cc2nc(Nc3ccc(C(F)(F)F)cc3)c3ccc(-c4ncccc4Cl)cc3n2)CCO1 [Compound 740, [7-(3-Chloro-pyridin-2-yl)-2-(2,2-dimethyl-morpholin-4-ylmethyl)-quinazolin-4-yl]-(4-trifluoromethyl-phenyl)-amine]",> 6.00
10,"C[C@H]1CN(Cc2nc(Nc3ccc(C(C)(C)C)cc3)c3ccc(-c4ncccc4C(F)(F)F)cc3n2)CCO1 [Compound 685, (S)-(4-tert-Butyl-phenyl)-[2-(2-methyl-morpholin-4-ylmethyl)-7-(3-trifluoromethyl-pyridin-2-yl)-quinazolin-4-yl]-amine]",> 6.00
11,"Cc1cccnc1-c1ccc2c(Nc3ccc(C(C)(C)C#N)cc3)nc(COCC(C)C)nc2n1 [Compound 161, 2-{4-[2-Isobutoxymethyl-7-(3-methyl-pyridin-2-yl)-pyrido[2,3-d]pyrimidin-4-ylamino]-phenyl}-2-methyl-propionitrile]",> 6.00
12,"OCc1nc(Nc2ccc(C(F)(F)F)cc2)c2ccc(-c3ncccc3C(F)(F)F)nc2n1 [Compound 171, [4-(4-Trifluoromethyl-phenylamino)-7-(3-trifluoromethyl-pyridin-2-yl)-pyrido[2,3-d]pyrimidin-2-yl]-methanol]",> 6.00
13,"CCCCCCN(CCCCCC)CCc1nc(Nc2ccc(C(F)(F)F)cc2)c2ccc(-c3ncccc3C(F)(F)F)cc2n1 [Compound 429, [2-Dihexylaminoethyl-7-(3-trifluoromethyl-pyridin-2-yl)-quinazolin-4-yl]-(4-trifluoromethyl-phenyl)-amine]",> 6.00
14,"CCN(Cc1nc(Nc2ccc(C(F)(F)F)nc2)c2ccc(-c3ncccc3C(F)(F)F)cc2n1)C1CCCCC1 [Compound 383, [2-[(Cyclohexyl-ethyl-amino)-methyl]-7-(3-trifluoromethyl-pyridin-2-yl)-quinazolin-4-yl]-(6-trifluoromethyl-pyridin-3-yl)-amine]",> 6.00
15,"CN1CCC(c2nc(Nc3ccc(C(C)(C)C)cc3)c3ccc(-c4ncccc4Cl)nc3n2)CC1 [Compound 769, (4-tert-Butyl-phenyl)-[7-(3-chloro-pyridin-2-yl)-2-(1-methyl-piperidin-4-yl)-pyrido[2,3-d]pyrimidin-4-yl]-amine]",> 6.00
16,"COCc1nc(Nc2ccc(C3CCCC3)cc2)c2ccc(-c3ncccc3C(F)(F)F)nc2n1 [Compound 110, (4-Cyclopentyl-phenyl)-[2-methoxymethyl-7-(3-trifluoromethyl-pyridin-2-yl)-pyrido[2,3-d]pyrimidin-4-yl]-amine]",> 6.00
